Assay results reported in patent publication US5830871A, “Inhibitors of E-, P- and L-selectin binding” (The Scripps Research Institute, priority 1996, dated 1998).

Experiments:
[1] = tested on: neutrophil/P-selection-dependent rat model; conditions: cited from earlier work; for lung injury / tissue accumulation of neutrophils: intravenous infusion of up to 200 μg, cobra venom
E-selectin [2] = molecular target: T1, E-selectin (Homo sapiens, UniProt P16581); assay: Inhibition of SLe^x glycoconjugate / HL-60 cell binding to immobilized sol-E-selectin
T1 construct: A 1.67 kbp DNA fragment encoding a truncated structural gene for E-selectin; made in house
T1 sequence (P16581 22-556 limits assumed): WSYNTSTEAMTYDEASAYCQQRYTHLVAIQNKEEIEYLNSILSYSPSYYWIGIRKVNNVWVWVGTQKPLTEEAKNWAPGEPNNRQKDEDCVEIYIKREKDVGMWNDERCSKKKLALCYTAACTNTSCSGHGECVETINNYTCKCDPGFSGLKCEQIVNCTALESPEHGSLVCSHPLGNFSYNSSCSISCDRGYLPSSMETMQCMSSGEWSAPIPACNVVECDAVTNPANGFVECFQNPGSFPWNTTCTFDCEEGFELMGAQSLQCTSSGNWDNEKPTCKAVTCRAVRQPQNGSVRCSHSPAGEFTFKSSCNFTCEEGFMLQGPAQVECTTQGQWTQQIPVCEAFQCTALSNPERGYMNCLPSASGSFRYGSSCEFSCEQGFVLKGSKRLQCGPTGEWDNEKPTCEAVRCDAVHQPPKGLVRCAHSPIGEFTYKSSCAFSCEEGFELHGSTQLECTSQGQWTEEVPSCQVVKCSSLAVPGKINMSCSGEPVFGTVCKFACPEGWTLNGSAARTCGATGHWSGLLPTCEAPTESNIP
Method: Analysis of compound 6 (class II compound; FIG. 1) as an inhibitor of SLe^x glycoconjugate binding to E-selectin provides an IC50 value of 0.8 mM, according to the method of S. A. DeFrees, et al., viz. J. Am. Chem. Soc. 1995, 117, 66.
A soluble form of E-selectin (sol-E-selectin) was prepared for inhibition assays of the SLe^x Mimetics. A 1.67 kbp DNA fragment encoding a truncated structural gene for E-selectin was isolated by PCR amplification of CDNA derived from messenger RNA that was isolated from IL-1 activated human endothelial cells. The CDNA was subcloned into the vector pBluescript II and was transfected into 293 cells. The clones were screened for the production of sol-E-selectin, and the clone 293#3 was selected as the stable cell line that produced the greatest amount of sol-E-selectin per cell. Sol-E-selectin was produced on a large scale from this line using a Nunc cell factory. Recombinant sol-E-selectin was isolated from the media using immunoaffinity chromatography.
The SLe^x Mimetics were assayed for ability to block the adhesion of HL-60 cells to immobilized sol-E-selectins (either on a polymeric column solid support or onto the surface of the assay vessle). Immobilized E-selectin was incubated first with inhibitor and then with HL-60 cells. The bound cells were lysed, and myeloperoxidase released from the bound cells was detected with o-phenylenediamine and hydrogen peroxide. The percentage inhibition was determined by comparing the absorbance of the resulting solution at 492 nm to that in wells containing no inhibitor.
Each data point in the E-selectin assay is a direct measure of cells bound using a quantitative enzyme assay. The values were then plotted to give the titration curve and IC50 values. On average, five assays were performed for each inhibitor, and the results were highly reproducible. […] The IC50 values reported here is derived from all the data. Procedure described herein is adopted from Wong et. al. J. Am. Chem. Soc. 1995, 177, 66-79.

lung injury in rats = conditions: in vivo, read-out: IC50 value in vivo for protecting against lung injury; cited from earlier work
[3] = blood stream; glycosidase; cited from earlier work
E-selectin [4] = conditions: in vitro; cited from earlier work
E-selectin [5] = conditions: cited from earlier work
[6] = cited from earlier work
[7] = tested on: adhesion of neutophils to endothelial cells; conditions: cited from earlier work
P-selectin = assay: Inhibition of P-selectin; type: binding
L-selectin = assay: Inhibition of L-selectin; type: binding

Row | Compound | lung injury [1] | tissue accumulation of neutrophils [1] | IC50 (E-selectin [2]) [µM] | IC50 (lung injury in rats) [nM] | stability in the blood [3] | affinity for E-selectin (E-selectin [4]) | SLe^x/E-selectin interaction (E-selectin [5]) | oral activity [6] | adhesion of neutrophils to endothelial cells [7] | effective intravenous concentration ([1]; calculated from concentrations used, 200 μg) | biological activity compared with SLe^x (E-selectin [2]; compared with SLe^x (0.50 mM)) | inhibition of P-selectin (P-selectin; @ 3 mM) [%] | P-selectin inhibition activity compared with sialyl Lewis X (P-selectin; compared with sialyl lewis X) | inhibition of L-selectin (L-selectin; @ 3 mM) [%] | L-selectin inhibition activity compared with sialyl Lewis X (L-selectin; compared with sialyl lewis X)
1 | NeuAcα2→3Galβ1→4(Fucα1→3)GlcNAcβ1, 3Galβ- [pentamer] | dramatically reduced lung injury | diminished tissue accumulation of neutrophils | – | – | – | – | – | – | – | – | – | – | – | – | –
2 | CC(=O)NC1C(O)CC(OC2C(O)C(CO)OC(OC3C(CO)OC(O)C(NC(C)=O)C3OC3OC(C)C(O)C(O)C3O)C2O)(C(=O)O)OC1C(O)C(O)CO (stereo not drawn) [SLe^x, NeuAcα2→3Galβ1→4(Fucα1→3GlcNAc] | dramatically reduced lung injury | diminished tissue accumulation of neutrophils | 500 | ~1000 | unstable in the blood stream | relatively weak | inhibits the SLe^x /E-selectin interaction | orally inactive | blocks adhesion of neutophils to endothelial cells | less than 1 μM | – | – | – | – | –
3 | O=C(COP(=O)(O)O)[C@@H](O)[C@H](O)C[C@H]1O[C@H](CO)[C@@H](O)[C@H](O)[C@@H]1O [Compound 6] | – | – | 800 | – | – | – | – | – | – | – | almost the same biological activity as SLe^x | > 80 | better or equal to that of sialyl lewis X | > 80 | better or equal to that of sialyl lewis X
